Experimental data as given in paper PMC9763582, “Analyzing the postulated inhibitory effect of Manumycin A on farnesyltransferase” (Frontiers in Chemistry, 2022).
One block for each molecule: values may come before it.

Experiments:
[1] = biological target: T1, C. elegans farnesyltransferase (ceFTase) (Caenorhabditis elegans, UniProt O44501+Q19752); assay: continuous fluorescence assay with Dansyl-GCVLS and FPP, […]°C; Ki calculated from IC50 […] (Cheng-Prusoff); type: biochemical
T1 construct: gene fntb-1; coding regions of FTα (NM_001392242.1) and FTβ (NM_001392654.1), N-terminal His-tag on β-subunit; with farnesyltransferase α-subunit (ceFNTA)
T1 sequence (Q19752 1-401): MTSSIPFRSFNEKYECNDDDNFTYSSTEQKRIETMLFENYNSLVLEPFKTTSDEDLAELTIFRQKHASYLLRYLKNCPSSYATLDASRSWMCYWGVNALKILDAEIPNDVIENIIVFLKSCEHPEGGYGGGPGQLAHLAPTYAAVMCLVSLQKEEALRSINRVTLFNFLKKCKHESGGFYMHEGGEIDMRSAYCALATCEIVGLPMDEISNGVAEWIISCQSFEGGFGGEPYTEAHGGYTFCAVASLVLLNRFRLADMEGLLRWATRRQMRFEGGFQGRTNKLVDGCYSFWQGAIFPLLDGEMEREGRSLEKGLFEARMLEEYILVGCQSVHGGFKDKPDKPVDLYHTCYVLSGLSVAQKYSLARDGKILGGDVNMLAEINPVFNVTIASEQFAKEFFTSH
T1 sequence (O44501 1-328): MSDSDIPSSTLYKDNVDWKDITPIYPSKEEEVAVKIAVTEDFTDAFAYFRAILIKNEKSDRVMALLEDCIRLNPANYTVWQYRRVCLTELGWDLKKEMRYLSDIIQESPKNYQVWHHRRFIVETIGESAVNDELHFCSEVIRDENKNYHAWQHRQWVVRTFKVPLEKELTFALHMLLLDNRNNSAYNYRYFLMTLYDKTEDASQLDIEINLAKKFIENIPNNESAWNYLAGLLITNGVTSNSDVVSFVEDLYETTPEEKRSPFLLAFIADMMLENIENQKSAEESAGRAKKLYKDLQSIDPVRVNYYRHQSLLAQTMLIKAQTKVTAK

[2] = biological target: T2, human farnesyltransferase (hFTase) (Homo sapiens, UniProt P49354+P49356); assay: as above; type: biochemical
T2 construct: gene FNTB; IMAC purified FTase, FTα/FTβ heterodimer, His-tagged β-subunit; with farnesyltransferase α-subunit (FNTA)

purified protein = substrate: CC(C)=CCC/C(C)=C/CC/C(C)=C/CO[P@@](=O)(O)OP(=O)(O)O; assay: purified protein; settings: Zn2+ ([…] ZnCl2 in assay)

- Ki [1]: 3.16 µM
- Ki [2]: 4.4 µM
Molecule: CCCC[C@@H](C)/C=C(C)/C=C(\C)C(=O)NC1=C[C@@](O)(/C=C/C=C/C=C/C(=O)NC2=C(O)CCC2=O)[C@@H]2O[C@@H]2C1=O [Manumycin A]

B1: C. elegans farnesyltransferase (ceFTase) (Caenorhabditis elegans) (protein)
chain 1: T1 sequence (Q19752 1-401)
chain 2: T1 sequence (O44501 1-328)
- Km (purified protein): 1.3 µM
